# Measured values as given in patent US6335367B1 (priority 1999, dated 2002).
# What was measured:
# Format in all cases: in vivo
# [1] = tested on: Pucciitia recoitdita (f. sp. tritici); details: 300 grams per hectare; protective spray, inoculated one day after treatment; evaluated after 12 days
# Plasiitopara viticola = assay: Grape Downy Mildew (GDM) protective test on grape plants; details: 300 grams/hectare; protective spray; seven days after inoculation
# Protocol: Numerous compounds of this invention were tested for fungicidal activity in vivo against the diseases described below. The compounds were dissolved a 1:1 mixture of acetone and methanol or N, N-dimethylformamide and diluted with a 2:1:1 mixture of water, acetone, and methanol (by volume) or water, respectively, to achieve the appropriate concentration. The solution was sprayed onto the plants, and allowed to dry (two hours). Then the plants were inoculated with fungal spores. Each test utilized control plants which were sprayed with the appropriate solvent mixture and inoculated. For these protective tests, the plants were inoculated one day after treating the plants with the fungicide compound. The remainder of the technique of each of the tests is given below along with the results for various compounds described herein by the Compound # against the various fungi at a dose of 300 grams per hectare. The results are percent disease control are compared to the untreated check wherein one hundred was rated as complete disease control and zero as no disease control.
# Plasiitopara viticola was maintained on leaves of grape plants, cultivar. Delaware, in a controlled temperature chamber at 20° C. in humid air with moderate light intensity for 7 to 8 days. A water suspension of the spores from infested leaves was obtained and the spore concentration was adjusted to about 3×10^5 per ml of water. Delaware grape plants were inoculated by spraying the underside of leaves with a DeVilbiss atomizer until small drops were observed on the leaves. The inoculated plants were incubated in a mist chamber for 24 hours at 20° C. The plants were then removed to a controlled environmental room at 20° C. Disease control values were recorded as percent control seven days after inoculation.
# [2] = tested on: two-spotted spider mite Teranychus uricate; assay: Insecticidal leaf disk test, two-spotted spider mite (MTA); details: 300 grams/hectare; leaf disk infested prior to spraying; visual inspection 24-48 hours after spraying
# Protocol: (§1) Numerous compounds of this invention were tested for insecticidal activity in vivo against the insects described below. The following test method was used to evaluate compounds of the present invention for insecticidal activity. The compound to be evaluated was dissolved in an appropriate solvent, usually a mix of acetone, methanol and water, and sprayed over three excised leaf disks using a flat fan nozzle. After spraying, the leaf disks were allowed to dry. Two disks were infested with the leaf chewing insects (southern armyworm and Mexican bean beetle) and the third leaf disk was already infested with the two-spotted spider mite prior to spraying. The tested insect species were:
# MTA two-spotted spider mite Teranychus uricate
# (§2) Observations as percent control were made by visual inspection 24-48 hours after spraying.
# [3] = tested on: Mexican bean beetle Epilachiba varivestis; assay: Insecticidal leaf disk test, Mexican bean beetle (BB); details: 300 grams/hectare; sprayed leaf disk; visual inspection 24-48 hours after spraying
# Protocol: as §1
# BB Mexican bean beetle Epilachiba varivestis
# as §2
SMILES,"percent disease control, wheat leaf rust [1] [%]","percent disease control, grape downy mildew (Plasiitopara viticola) [%]","percent control, two-spotted spider mite [2] [%]","percent control, Mexican bean beetle [3] [%]"
"COC=C(C(=O)OC)c1ccccc1COc1cccc(C2CC2C(C)=NOC)c1 (single isomer, unassigned) [Compound 1.18A]",100,100,100,100
"COC=C(C(=O)OC)c1ccccc1COc1cccc(C2CC2C(C)=NOC)c1 (single isomer, unassigned) [Compound 1.18B]",100,100,100,100
"CCON=C(C1CC1)C1CC1c1cccc(OCc2ccccc2C(=COC)C(=O)OC)c1 (single isomer, unassigned) [Compound 1.108A]",100,100,100,100
"CCON=C(C1CC1)C1CC1c1cccc(OCc2ccccc2C(=COC)C(=O)OC)c1 (single isomer, unassigned) [Compound 1.108B]",100,100,–,–
"CNC(=O)C(=NOC)c1ccccc1COc1cccc(C2CC2C(C)=NOC)c1 (single isomer, unassigned) [Compound 3.18A]",100,–,–,–
"CNC(=O)C(=NOC)c1ccccc1COc1cccc(C2CC2C(C)=NOC)c1 (single isomer, unassigned) [Compound 3.18B]",100,100,–,–
COC=C(C(=O)OC)c1ccccc1COc1cccc(C2CC2C(=NOC)c2ccc(Cl)cc2)c1 (stereo not shown) [Compound 1.04],100,–,100,–
"CCCCCCC(=NOC)C1CC1c1cccc(OCc2ccccc2/C(=C\OC)C(=O)OC)c1 (stereo not drawn) [Compound 1.23, Methyl (E)-3-methoxy-2-trans-[2-(3-(2-(methoximinohept-1-yl)cyclopropyl)-phenoxymethyl)phenyl]-2-propenoate]",–,100,100,100
COC=C(C(=O)OC)c1ccccc1COc1cccc(C2CC2C(CC(C)C)=NOC)c1 (stereo not shown) [Compound 1.24],–,100,100,100
COC=C(C(=O)OC)c1ccccc1COc1cccc(C2CC2C(=NOC)C2CC=C(C)CC2)c1 (stereo not shown) [Compound 1.33],–,–,100,100
"CO/C=C(/C(=O)OC)c1ccccc1COc1cccc(C2CC2C(=NOC)C2CC2)c1 (stereo not drawn) [Compound 1.34, Methyl (E)-3-methoxy-2-trans-[2-(3-(2-(methoximinocycloprop-1-yl)cyclopropyl)phenoxymethyl)phenyl]-2-propenoate]",100,100,100,100
COC=C(C(=O)OC)c1ccccc1COc1cccc(C2CC2C(=NOC(C)(C)C)C2CC2)c1 (stereo not shown) [Compound 1.110],–,–,100,100
COC=C(C(=O)OC)c1ccccc1COc1cccc(C2CC2C(=NOCc2ccccc2)C2CC2)c1 (stereo not shown) [Compound 1.115],–,100,100,100
CNC(=O)C(=NOC)c1ccccc1COc1cccc(C2CC2C(=NOC)C2CC2)c1 (stereo not shown) [Compound 3.34],100,100,–,–
"CCC(C)C(NNc1ccccc1)=C1CC1c1cccc(OCc2ccccc2/C(=C\OC)C(=O)OC)c1 (stereo not drawn) [Compound 4.17, Methyl (E)-3-methoxy-2-trans-[2-(3-(2-(2-ethyl-1-(2-phenylhydrazino)propylidene)cyclopropyl)phenoxymethyl)phenyl]-2-propenoate]",100,–,–,–
"COC=C(C(=O)OC)c1ccccc1COc1cccc(C2CC2C(=NNC(=O)c2ccccc2)C2CC2)c1 (stereo not drawn) [Compound 4.98, Methyl (E)-3-methoxy-2-trans-[2-(3-(2-(1-(N-benzoylhydrazinomethylidine)cycloprop-1-yl)cyclopropyl)phenoxymethyl)phenyl]-2-propenoate]",100,–,–,–
